# Experimental data taken from patent publication US20240254138A1, “TRICYCLIC PYRIMIDINES AS CYCLIN-DEPENDENT KINASE 7 (CDK7) INHIBITORS” (JANSSEN PHARMACEUTICA NV, priority 2021, published 2024).
# Where two headings read alike, the source gives them in different places.
# Experiments:
# [1] = tested on: RNA Polymerase II Serine 5 phosphorylation (Rpb1 CTD, downstream substrate of CDK7) in A549 cells; assay: Imaging-based cellular RNA PolII Ser5 phosphorylation assay in A549 cells; assay type: cell-based, human; settings: wild-type CDK7, RNA PolII Ser5 phosphorylation, averaged over all measurements; for IC50: Homo sapiens, A549, A549 cells, read-out: CDK7_A549 Wild-type CDK7 (pIC50) (converted); for CDK7_A549 Wild-type CDK7 (pIC50): A549 cells
# Summary of the method: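 A549 cells, seeded 1000/well in DMEM with 1% FBS and cultured 20 h, were treated with compound for 3 h at 37 °C. Ser5-phospho-Rpb1 CTD detected by immunofluorescence imaging after fixation and methanol permeabilization; IC50 from curve fit normalized to DMSO and 10 μM reference-compound controls.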
# [2] = tested on: RNA Polymerase II Serine 5 phosphorylation in A549 cells overexpressing CDK7-mutant (C312S); assay: Imaging-based cellular RNA PolII Ser5 phosphorylation assay in A549 cells overexpressing CDK7-mutant (C312S); assay type: cell-based, human; settings: RNA PolII Ser5 phosphorylation, averaged over all measurements; for IC50: Homo sapiens, A549, A549 cells overexpressing CDK7-mutant (C312S), read-out: CDK7_A549 mutant hCDK7(pIC50) (converted); for CDK7_A549 mutant hCDK7(pIC50): A549 cells overexpressing CDK7-mutant (C312S)
# Summary of the method: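 A549 cells overexpressing CDK7 C312S (with endogenous wild-type CDK7) were treated with compound for 3 h at 37 °C in 1% FBS medium. Phospho-Rpb1 CTD Ser5 was immunostained after fixation and imaged. IC50 came from curve fit of % control, normalised to DMSO and 10 μM reference-compound controls.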
# [3] = molecular target: CDK7/cyclinH/MAT1 trimeric complex (Homo sapiens, UniProt P50613); assay: In vitro CDK7 assay, potency of irreversible covalent inhibitors (kinact/KI), coupled PK/LDH ADP readout at 340 nm; settings: for Ki: CDK7 (20 nM enz.) (KI, μM); for kinact: read-out: CDK7 (20 nM enz.) (kinact, s^−1), 20 nM enzyme
# CDK7/cyclinH/MAT1 trimeric complex, sequence (P50613 whole entry): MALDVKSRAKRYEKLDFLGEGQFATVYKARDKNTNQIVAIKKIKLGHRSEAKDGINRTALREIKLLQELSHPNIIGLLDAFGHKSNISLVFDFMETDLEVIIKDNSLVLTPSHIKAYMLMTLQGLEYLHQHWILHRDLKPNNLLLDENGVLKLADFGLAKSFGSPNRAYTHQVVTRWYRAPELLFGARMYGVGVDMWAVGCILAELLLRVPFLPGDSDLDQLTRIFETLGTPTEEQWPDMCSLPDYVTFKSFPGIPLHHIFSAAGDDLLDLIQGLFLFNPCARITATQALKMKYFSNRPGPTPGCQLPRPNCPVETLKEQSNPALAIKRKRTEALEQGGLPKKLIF
# CDK7/cyclinH/MAT1 trimeric complex, sequence (P51946 whole entry partner): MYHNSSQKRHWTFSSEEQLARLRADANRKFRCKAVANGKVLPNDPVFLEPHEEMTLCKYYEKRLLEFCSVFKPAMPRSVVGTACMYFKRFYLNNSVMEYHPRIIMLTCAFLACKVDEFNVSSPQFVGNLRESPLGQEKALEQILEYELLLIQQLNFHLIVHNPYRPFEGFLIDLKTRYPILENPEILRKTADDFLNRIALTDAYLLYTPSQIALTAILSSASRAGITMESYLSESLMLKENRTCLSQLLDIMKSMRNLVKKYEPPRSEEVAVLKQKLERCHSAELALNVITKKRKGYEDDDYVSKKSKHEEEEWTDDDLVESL
# CDK7/cyclinH/MAT1 trimeric complex, sequence (P51948 whole entry partner): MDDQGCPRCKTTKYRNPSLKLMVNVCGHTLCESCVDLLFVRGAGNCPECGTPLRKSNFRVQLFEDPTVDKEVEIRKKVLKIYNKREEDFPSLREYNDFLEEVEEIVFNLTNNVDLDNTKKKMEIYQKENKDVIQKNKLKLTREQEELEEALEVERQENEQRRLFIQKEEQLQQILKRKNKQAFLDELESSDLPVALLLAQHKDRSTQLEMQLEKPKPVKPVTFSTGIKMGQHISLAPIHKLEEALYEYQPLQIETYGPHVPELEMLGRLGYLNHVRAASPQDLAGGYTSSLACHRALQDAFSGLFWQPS
# [4] = read-out: CDK7 (20 nM enz.) (kobs/[I], M^−1*s^−1), 20 nM enzyme
# [5] = read-out: CDK7 (20 nM enz.) (kinact/KI, M^−1*s^−1), 20 nM enzyme
Compound,IC50 [1],IC50 [2],"kinact/KI [3, 4]",Ki ([3]; 20 nM enzyme),kinact [3],"kinact/KI [3, 5]","CDK7 (20 nM enz.) (kinact/KI, M^−1*s^−1) ([3]; 20 nM enzyme)",CDK7_A549 Wild-type CDK7 (pIC50) [1],CDK7_A549 mutant hCDK7(pIC50) [2],"CDK7 (20 nM enz.) (kinact, s^−1) ([3]; 20 nM enzyme)","CDK7 (20 nM enz.) (kobs/[I], M^−1*s^−1) ([3]; 20 nM enzyme)"
C=CC(=O)N1CC(n2cc(-c3cc(C)c4c(c3)Nc3nccc(N5CCOCC5)c3CO4)cn2)C1 [Compound 190],33.9 nM,~8910 nM,1250 M⁻¹ s⁻¹,,,,,,,,
C=CC(=O)N1CC(N2CC(c3cc4c(c(C)n3)OCc3c(-c5cnn(C)c5)ccnc3N4)C2)C1 [Compound 198],240 nM,> 10000 nM,,0.365 µM,4.47e-05 s⁻¹,122 M⁻¹ s⁻¹,,,,,
C=CC(=O)N1CC(N2CC(c3cc(C)c4c(c3)Nc3nccc(N5CCOCC5)c3CO4)C2)C1 [Compound 215],64.6 nM,> 10000 nM,753 M⁻¹ s⁻¹,,,,,,,,
C=CC(=O)N1CC[C@H](N2CC(c3cc4c(c(C)n3)OCc3c(N5CCOCC5)ccnc3N4)C2)[C@H](F)C1 [Compound 225],126 nM,> 10000 nM,,0.337 µM,6.24e-05 s⁻¹,185 M⁻¹ s⁻¹,,,,,
C=CC(=O)N1CC(N2CC(c3cc4c(c(C(F)(F)F)n3)OCc3c(N5CCOCC5)ccnc3N4)C2)C1 [Compound 235],70.8 nM,9550 nM,,,,,,,,,962.5 M⁻¹ s⁻¹
C=CC(=O)N1CC(N2CCN(c3cc4c(cn3)OCc3c(N5CCOCC5)ccnc3N4)CC2)C1 [Compound 248],174 nM,> 10000 nM,,0.307 µM,8.51e-05 s⁻¹,277 M⁻¹ s⁻¹,,,,,
C=CC(=O)N1CCC2(CC1)CC(c1cc(F)c3c(c1)Nc1nccc(N4CCOCC4)c1CO3)C2 [Compound 250],1820 nM,> 10000 nM,,0.564 µM,1.06e-05 s⁻¹,18.9 M⁻¹ s⁻¹,,,,,
C=CC(=O)N1CC(N2CC(c3cc(C#N)c4c(c3)Nc3nccc(N5CCOCC5)c3CO4)C2)C1 [Compound 253],50.1 nM,6310 nM,989 M⁻¹ s⁻¹,,,,,,,,
C=CC(=O)N1CC(N2CC(c3cc4c(c(C(F)(F)F)c3)OCc3c(N5CCOCC5)ccnc3N4)C2)C1 [Compound 267],23.4 nM,~7240 nM,977 M⁻¹ s⁻¹,,,,,,,,

# Further molecules by falling Ki ([3]; 20 nM enzyme), results first:
IC50 [1],IC50 [2],"kinact/KI [3, 4]",Ki ([3]; 20 nM enzyme),kinact [3],"kinact/KI [3, 5]","CDK7 (20 nM enz.) (kinact/KI, M^−1*s^−1) ([3]; 20 nM enzyme)",CDK7_A549 Wild-type CDK7 (pIC50) [1],CDK7_A549 mutant hCDK7(pIC50) [2],"CDK7 (20 nM enz.) (kinact, s^−1) ([3]; 20 nM enzyme)","CDK7 (20 nM enz.) (kobs/[I], M^−1*s^−1) ([3]; 20 nM enzyme)",Compound
123 nM,> 10000 nM,,0.134 µM,7.96e-05 s⁻¹,596 M⁻¹ s⁻¹,,,,,,C=CC(=O)N1CC(N2CC(c3ccc4c(c3)Nc3nccc(-c5cnn(C)c5)c3C(C)O4)C2)C1 (centres unmarked) [Compound 197]
93.3 nM,> 10000 nM,,0.119 µM,4.74e-05 s⁻¹,,399.588 M⁻¹ s⁻¹,,,,,C=CC(=O)N1CC(N2CC(c3cc4c(c(C)n3)OCc3c(N5CCOCC5)ccnc3N4)C2)C1 [Compound 205]
162 nM,> 10000 nM,,0.103 µM,4.28e-05 s⁻¹,417 M⁻¹ s⁻¹,,,,,,CC#CC(=O)N1CC(N2CCC(c3ccc4c(c3)Nc3nccc(C5CCOCC5)c3CO4)CC2)C1 [Compound 269]
,,,0.101 µM,,,845.246 M⁻¹ s⁻¹,7.15,<5,8.548e-05 s⁻¹,,C=CC(=O)N1CC(N2CCC(c3cc4c(c(C)n3)OCc3c(N5CCOCC5)ccnc3N4)CC2)C1 [Compound 217]
132 nM,> 10000 nM,,0.0731 µM,3.42e-05 s⁻¹,468 M⁻¹ s⁻¹,,,,,,C=CC(=O)N1CC(N2CCN(c3cc4c(c(C)n3)OCc3c(N5CCOCC5)ccnc3N4)CC2)C1 [Compound 237]
,,,0.0474 µM,,,945.57 M⁻¹ s⁻¹,6.94,<5,4.486e-05 s⁻¹,,C=CC(=O)N1CC(N2CC(c3cc4c(c(C)n3)OCc3c(N5CCOCC5)ccnc3N4)C2)C1 [Compound 273]
~138 nM,> 10000 nM,,0.0439 µM,3.44e-05 s⁻¹,782 M⁻¹ s⁻¹,,,,,,C=CC(=O)N1CC(N2CC(c3cc4c(c(C)n3)OC(C)c3c(N5CCOCC5)ccnc3N4)C2)C1 (centres unmarked) [Compound 264]
72.4 nM,~7940 nM,,0.0398 µM,4.37e-05 s⁻¹,1100 M⁻¹ s⁻¹,,,,,,C=CC(=O)N1CC(n2cc(-c3cc4c(c(C)n3)OCc3c(N5CCOCC5)ccnc3N4)cn2)C1 [Compound 244]
,,,0.0256 µM,,,1810.44 M⁻¹ s⁻¹,7.1,<5,4.64e-05 s⁻¹,,C=CC(=O)N1CC(N2CCC(c3ccc4c(c3)Nc3nccc(-c5cnn(C)c5)c3C(C)(C)O4)CC2)C1 [Compound 260]
